Results reported in US20260007634A1, “PHARMACEUTICAL COMPOSITIONS FOR THE TREATMENT OF ALLERGIC DISEASES” (KINKI UNIVERSITY, priority 2022, published 2026).

Assays:
mouse B cells = assay: LPS-stimulated B cell proliferation (trypan blue); format: cell-based; conditions: 10 μM compound, 10 μg/mL LPS 3 days, control 1.66×10^4, LPS 4.25×10^4
Procedure: The inhibitory effect of the compound on B cell proliferation was examined using mouse B cells.
B cells collected from mice were cultured in RPMI 1640 medium for 1 day. Then, 10 μM mangiferin 8a and 10 μM norathyriol were added to B cells, and after 1 day of culture, 10 μg/mL of lipopolysaccharide (LPS) was added to each for 3 days. After 3 days of incubation, the number of viable cells was determined by the trypan blue dye method. Note that LPS was used as an allergic inflammation inducer.
Referring to FIG. 48, the horizontal axis indicates treatment with each compound and the vertical axis indicates cell count (1×10^4 cells/mL). Only 0.5% DMSO in PBS, which was used to dissolve the reagent (compound), was added as control. The LPS group is referred to as the LPS group with 10 μg/mL LPS, the mangiferin 8a group is referred to as the mangiferin 8a group with LPS and mangiferin 8a, and the norathyriol group is referred to as the norathyriol group with LPS and norathyriol.

[1] = test system: Monocytes collected from mice; assay: LPS-induced macrophage activation (CD11b/F4/80 flow cytometry); format: cell-based, mouse; conditions: 10 μM compound, 10 μg/mL LPS, 10 days; control 6.38, LPS only 26.8
Procedure: Monocytes collected from mice were cultured in RPMI 1640 medium for 1 day. Then, 10 μM mangiferin 8a and 10 μM norathyriol were added to monocytes, and after 1 day of culture, 10 μg/mL of LPS was added, followed by 10 days of culture. After 10 days of culture, cells were stained with anti-CD11b and anti-F4/80 antibodies, markers of macrophages, and expression of CD11b and F4/80 was measured using BD LSRFortessa. Note that CD11b positive and F4/80 positive indicate activated macrophages.

[2] = test system: B cells collected from mice; assay: LPS-induced differentiation into mature B cells (IgM/IgD flow cytometry); format: cell-based, mouse; conditions: 10 μM compound, 10 μg/mL LPS, 10 days
Procedure: B cells collected from mice were cultured in RPMI 1640 medium for 1 day. Then, 10 μM mangiferin 8a and 10 μM norathyriol were added to B cell, and after 1 day of culture, 10 μg/mL of LPS was added, followed by 10 days of culture. After 10 days of culture, cells were stained with anti-IgM and anti-IgD antibodies, markers of B cells, and the expression of IgM and IgD was measured using BD LSRFortessa. Note that IgM negative and IgD negative indicates pre-B cells, IgM positive and IgD negative indicates immature B cells, and IgM positive and IgD positive indicates mature B cells.

IgE antibody = assay: Serum IgE antibody ELISA, atopic dermatitis mice; format: in vivo, mouse; conditions: day 7, topical application, control 1214, vehicle (MC903) 2588
Procedure: (§1) MC903 at 2 nM was applied to the right auricle of a 6-week-old male Balb/c (Japan SLC Inc.). Starting 8 h later, 5% norathyriol aqueous solution (1 mL of ethanol containing […] of norathyriol), betamethasone ointment, and delgocitinib ointment were applied to the auricle for 7 days. The measurement of auricular skin swelling was calculated by calipers. The day on which the first application of the compound was made was defined as day 0. Betamethasone and delgocitinib are currently in clinical use in atopic dermatitis and were used as control drugs in this example.
Serum was collected from mice on day 7 in Example 1, and IgE antibody production was measured by enzyme-linked immunosorbent assay (ELISA). This assay was performed using a mouse IgE antibody ELISA kit (R&D).

IL-4 = assay: Auricular tissue IL-4 ELISA, atopic dermatitis mice; format: in vivo, mouse; conditions: day 7, topical application, control 56, vehicle 152
Procedure: as §1
The mouse IL-4 ELISA kit (R&D) was used for this measurement.

[3] = test system: B cells collected from mice; assay: LPS-induced differentiation into plasma cells (CD138 flow cytometry); format: cell-based, mouse; conditions: 10 μM compound, 10 μg/mL LPS, 10 days; vs LPS-added group
Procedure: B cells collected from mice were cultured in RPMI 1640 medium for 1 day. Then, 10 μM mangiferin 8a and 10 μM norathyriol were added to B cell, and after 1 day of culture, 10 μg/mL of LPS was added, followed by 10 days of culture. After 10 days of culture, cells were stained with anti-CD138 antibody, a marker of plasma cells, and CD138 expression was measured using BD LSRFortessa.

[4] = test system: B cells collected from mice; assay: BAFF-induced differentiation into plasma cells (CD138 flow cytometry); format: cell-based, mouse; conditions: 100 ng/mL BAFF, 10 days; 100 μM mangiferin, 20 μM 1,3,5,6-tetrahydroxyxanthone, 10 μM others; vs BAFF-added group
Procedure: B cells collected from mice were cultured in RPMI 1640 medium for 1 day. Then, 100 μM mangiferin, 10 μM mangiferin 8a, 10 μM norathyriol, 20 μM 1,3,5,6-tetrahydroxyxanthone, 10 μM xanthohydrol, 10 μM α-mangostin, 10 μM of γ-mangostin were added to B cell, and after 1 day of culture, 100 ng/mL of BAFF was added, followed by 10 days of culture. After 10 days of culture, cells were stained with anti-CD138 antibody, a marker of plasma cells, and CD138 expression was measured using BD LSRFortessa.
In all figures, the horizontal axis represents the expression level of CD138 and the vertical axis represents the number of cells.

TSLP = assay: Auricular tissue TSLP ELISA, atopic dermatitis mice; format: in vivo, mouse; conditions: day 7, topical application, control 317, vehicle 1533
Procedure: as §1
The mouse TSLP ELISA kit (R&D) was used for this measurement.

## O=c1c2cc(O)c(O)cc2oc2cc(O)cc(O)c12 [norathyriol, 1,3,6,7-tetrahydroxyxanthone]
Mouse B cells
  number of viable cells (cell count): 1.16×10^4 cells/mL
[1]
  CD11b positive and F4/80 positive population (activated macrophages): 11.6%
[2]; control 0.239, LPS only 20.7
  population IgM positive and IgD positive (mature B cells): 0.065%
[2]; control 1.91, LPS only 41.8
  population IgM positive and IgD negative (immature B cells): 2.14%
[2]; control 96.7, LPS only 36.6
  population IgM negative and IgD negative (pre-B cells): 97.7%
IgE antibody
  amount of IgE antibody: 1692 ng/mL
IL-4
  IL-4 secretion: 94 pg/mL
[3]
  CD138 expression: significantly decreased CD138 expression
[4]
  CD138 expression: significantly decreased CD138 expression
TSLP
  TSLP secretion: 1026 pg/mL
